Experimental data: BindingDB's records for doi:10.1021/acs.jmedchem.7b01490 (Astrazeneca, 2018)

experiment: Inhibition of CHK1 in human HT29 cells assessed as abrogation of camptothecin-induced G2/M phase arrest

| Structure (SMILES) | EC50 [nM] |
| --- | --- |
| NC(=O)c1cnc(N[C@H]2CCCNC2)c2cc(-c3ccsc3)sc12 | 10 |
| NC(=O)c1cnc(N[C@H]2CCCNC2)c2cc(-c3ccccc3)sc12 [(S)-2-phenyl-4-(piperidin-3-ylamino)thieno[3,2-c]pyridine-7-carboxamide] | 26 |
| NC(=O)c1ccc(N[C@H]2CCCNC2)c2cc(-c3ccc(F)cc3)[nH]c12 | 40 |
| Cn1cc(-c2cc3c(N[C@H]4CCCNC4)ncc(C(N)=O)c3s2)cn1 | 150 |
| NC(=O)c1cnc(N[C@H]2CCCNC2)c2cc(-c3cccs3)sc12 | 12 |
| NC(=O)c1cnc(N[C@H]2CCCNC2)c2cc(-c3ccccc3)oc12 | 390 |
| NC(=O)c1cnc(N[C@H]2CCCNC2)c2cc(-c3cnn(Cc4ccccc4)c3)sc12 | 60 |
| CN(c1ncc(C(N)=O)c2sc(-c3ccccc3)cc12)[C@H]1CCCNC1 | 840 |
| NC(=O)c1cnc(N[C@H]2CNCC[C@@H]2O)c2cc(-c3ccccc3)sc12 | 410 |
| NC(=O)c1cnc(N[C@H]2CCCN[C@@H]2CCO)c2cc(-c3ccccc3)sc12 | 3300 |
| NC(=O)c1cnc(N[C@H]2CCCNC2)c2cc(-c3cn[nH]c3)sc12 | 2300 |
| NC(=O)c1ccc(N[C@H]2CCCNC2)c2cc(-c3ccccc3)[nH]c12 | 53 |
| C[C@@H]1CC[C@H](Nc2ncc(C(N)=O)c3sc(-c4ccccc4)cc23)[C@H](C)N1 | 10 |
| C[C@@H]1NCCC[C@@H]1Nc1ncc(C(N)=O)c2sc(-c3ccccc3)cc12 | 50 |
| C[C@@H]1CC[C@H](Nc2ncc(C(N)=O)c3sc(-c4ccccc4)cc23)CN1 | 30 |
| NC(=O)c1cnc(SC2CCCNC2)c2cc(-c3ccccc3)sc12 (stereo not given) | 210 |
| CN1CCC[C@H](Nc2ncc(C(N)=O)c3sc(-c4ccccc4)cc23)C1 | 880 |
| NC(=O)c1ccc(N[C@H]2CCCNC2)c2cc(-c3cccc(F)c3)[nH]c12 | 30 |
| NC(=O)c1cnc(N(CCO)[C@H]2CCCNC2)c2cc(-c3ccccc3)sc12 | 3700 |
| NC(=O)c1ccc(N[C@H]2CCCNC2)c2cc(-c3ccc(Cl)cc3)[nH]c12 | 70 |
| NC(=O)c1cnc(O[C@H]2CCCNC2)c2cc(-c3ccccc3)sc12 | 340 |
| C[C@H]1NCCC[C@@H]1Nc1ncc(C(N)=O)c2sc(-c3ccccc3)cc12 | 8 |
| CCN(c1ncc(C(N)=O)c2sc(-c3ccccc3)cc12)[C@H]1CCCNC1 | 110 |
| NC(=O)c1cnc(N[C@H]2CCCNC2)c2cc(-n3ccnc3)sc12 | 10000 |
| NC(=O)c1cnc(N[C@H]2CCCNC2)c2cc(-c3cccc(F)c3)sc12 | 24 |
